Measured values as given in patent US5633230A, “Treatment of cytomegalovirus infection” (priority 1994, dated 1997).
Converted amounts (≈) assume the structure as drawn. “And” between values parts separate entries of the source, which are not always exact repeats. Identical values can stand only once.

Tests used:
physchem = conditions: water
[1] = blood levels after single subcutaneous injection of labelled compound; format: in vivo; conditions: mice
Experimental: Blood levels in mice resulting from single subcutaneous injection of a 53 μg dose of the labelled compound were also evaluated. […] Peak levels were maintained for about 20 minutes. At 40 minutes and 2 hours, blood levels had declined to about 80% of peak values. […] Evidently, the compound AV-9 reaches the bloodstream rapidly.

CMV strain AD-169 [2] = assay: plaque reduction assay, CMV AD-169 in MRC-5 cells; format: cell-based, human CMV; conditions: CMV AD-169, MRC-5 (human embryonic lung), 24 h drug pretreatment
Experimental: (§1) The following procedures were then used to determine inhibitory effects of AV-9 on the replication of CMV. […] This was accomplished by diluting the stock peptide solution in growth medium (10% fetal bovine serum and 10 μg/ml gentamicin in Dulbecco's MEM (DMEM)) used to overlay the monolayers.
After pretreatment with AV-9, the monolayers were overlaid with 0.1 ml log10 dilutions of virus (CMV strain AD-169) ranging from 10^-1 to 10^-6. Virus was then allowed to adsorb for 1 hour at 37° C. The virus inoculum was removed and the monolayers were overlayed with DMEM containing 2% FBS, 10 ug/ml gentamicin and a specified concentration of AV-9. Virus was next allowed to replicate for 7 to 10 days until the plaques were judged to be well developed, and then the monolayers were fixed and stained with a solution of 1% crystal violet in 1% formaldehyde,70% ethanol. Finally, plaques (each representing a single viable virion) were counted and checked microscopically.
(§2) In a like manner, plaque reduction assays were also performed against other CMV strains and another CMV host, with comparison against ganciclovir (GCV) and foscarnet (FCV).

CMV strain AD-169 [3] = assay: plaque reduction assay, CMV AD-169 in HFF cells; format: cell-based, human CMV; conditions: CMV AD-169, HFF, without 24 h drug pretreatment
Experimental: as §1
[…] Virus was then allowed to adsorb for 1 hour at 37° C. The virus inoculum was removed and the monolayers were overlayed with DMEM containing 2% FBS, 10 ug/ml gentamicin and a specified concentration of AV-9. Virus was next allowed to replicate for 7 to 10 days until the plaques were judged to be well developed, and then the monolayers were fixed and stained with a solution of 1% crystal violet in 1% formaldehyde,70% ethanol. Finally, plaques (each representing a single viable virion) were counted and checked microscopically.
as §2

HCMV strain AD-169 = assay: drug combination plaque reduction study (MacSynergy); format: cell-based; conditions: human CMV-infected MRC-5 cells, plaque counts
Experimental: For use in this study, HCMV strain AD-169 was obtained from the American Type Culture Collection, Rockville, Md. and ganciclovirresistant clinical isolate of HCMV, strain D16, was obtained from Kenneth D. Thompson, Loyola University Medical Center, Maywood, Ill. Host MRC-5 cells were cultured in a medium of Basal Medium Eagle (BME) (GIBCO), fetal bovine serum (FBS) (Hyclone Laboratories), 0.035% NaHCO3 and without antibiotics.
Test medium for dilution of virus and for preparation and dilution of compounds was Dulbecco's modified Eagle medium (DMEM), 2% FBS, 0.1% NaHCO3, 50 μg gentamicin/ml.
For drug combination experiments, each of AV-9, DHPG, foscarnet, and […] was prepared in test medium at double the highest concentration used. Each of these compound preparations was then diluted by serial 2-fold dilutions in test medium (except for AZT, which was diluted by serial half-log dilutions).
Growth medium was decanted from established monolayers of MRC-5 cells in 24-well tissue culture plates. Compound dilutions were placed in designated wells of the plates at 0.8 ml/well, with test medium only placed in virus control or cell control wells, and the plates were placed at 37° C. Four wells were used for each different compound dilution. After 24 hr of pre-treatment incubation, the medium was aspirated from each well of the plates. One ml of virus, diluted in test medium was placed in each well except those to be used for cell controls or those to be used for toxicity controls. One ml of sterile test medium was placed in each of these cell or toxicity control wells. The plates were centrifuged at 2200 rpm for 30 minutes at room temperature to allow the virus to adsorb. Medium was aspirated from each well of the plates. The proper individual compound concentrations or combinations were placed in test wells (0.8 ml/well, 4 wells/dilution) or in toxicity control wells. Test medium without compound was added (0.8 ml/well) to each cell control and virus control well. All plates were incubated at 37° C. in a moist atmosphere of 5% CO2, 95% air. […] After 15 minutes, the stain was removed, cells were rinsed in tap water until the water was clear, and the plates were inverted and dried at room temperature. Plaques were counted by use of a dissecting microscope. The plaque counts were entered in the MacSynergy™ program of Prichard and Shipman and 3-D plots were made.

[4] = single s.c. injection, 53 μg labelled compound

SMILES: CC(=O)N[C@H](CCCNC(=N)N)C(=O)N[C@H](CCCNC(=N)N)C(=O)N[C@H](CCCNC(=N)N)C(=O)N[C@H](CCCNC(=N)N)C(=O)N[C@H](CCCNC(=N)N)C(=O)N[C@H](CCCNC(=N)N)C(=O)N[C@H](CCCNC(=N)N)C(=O)N[C@H](CCCNC(=N)N)C(=O)N[C@H](CCCNC(=N)N)C(N)=O [AV-9, acetyl-[D-Arg]9 -NH2]
- solubility (physchem): ~1000 mg/mL (≈ 683 mM)
- blood level relative to peak values ([1]; at 40 minutes and 2 hours, single s.c. 53 μg): about 80%
- blood level relative to peak ([1]; at 4 hour, single s.c. 53 μg): about 10%
- blood level ([1]; at 8 hours and 24 hours, single s.c. 53 μg): threshold of detection
- time near peak blood levels are maintained ([1]; single s.c. 53 μg, summary statement): 20 to 120 min
- near-peak blood level [1, 4]: around 1 μg/ml
- time peak blood levels were maintained [1, 4]: about 20 minutes
- time to near-peak blood levels following injection [1, 4]: 5 min
- IC50 (CMV strain AD-169 [2]): 2.6 µM and 4.8 µM and 2.7 µM
- IC50 (CMV strain AD-169 [3]): 12 µM
- antagonism in combination with phosphonoformic acid (foscarnet) (HCMV strain AD-169): insignificant amount of antagonism
- synergy in combination with AZT (HCMV strain AD-169): No synergy
- synergy in combination with DHPG (HCMV strain AD-169): intense synergy
- synergy in combination with phosphonoformic acid (foscarnet) (HCMV strain AD-169): moderate amount of synergy
